{"source": "paper PMC8160450", "about": "“GRK Inhibition Potentiates Glucagon-Like Peptide-1 Action” (Frontiers in Endocrinology, 2021)", "type_in_all_cases": "cell-based", "key": {"[1]": {"system": "β-arrestin recruitment to the GLP-1R", "test": "GLP-1 mediated β-arrestin recruitment assay (PathHunter eXpress GLP1R CHO-K1 β-Arrestin cells)", "settings": "CHO-K1 cells stably expressing human GLP-1 receptor and β-arrestin", "procedure": "PathHunter® eXpress GLP1R CHO-K1 β-Arrestin cells were plated at 6000 cells/well in a 384-well, PDL, white and opaque plate in F12 medium containing 10% FBS, 0.3 mg/ml hygromycin, and 0.8 mg/ml G418. The plate was incubated for two days in a humidified incubator at 37°C and 5% CO2 prior to the experiment. On the day of the exeperiment, the cells were washed once with the Assay Buffer (HBSS with calcium and magnesium, 20 mM Hepes, and 0.1% fatty-acid free BSA) followed by a 10 minute preincubation with GRK inhibitors or vehicle (DMSO) at the indicated concentrations. The final DMSO concentration was 0.1%. GLP-1 was added to the indicated concentrations, and incubation was continued for an additional 90 minutes at 37°C. The detection reagent was then added the cells, followed by a 60 minute incubation at the room temperature. The plate was read on MicroBeta LumiJet (PerkinElmer, Waltham, MA). In this cellular system, the GLP-1 receptor is fused in frame with the small enzyme fragment of ProLinkTM and co-expressed in cells expressing a fusion of the larger deletion mutant of β-gal, also called enzyme acceptor. […] The cellular β-gal enzyme activity is measured using chemiluminescent detection reagents."}, "mouse pancreatic islets": {"system": "mouse pancreatic islets", "test": "Glucose stimulated insulin secretion (GSIS) in isolated mouse pancreatic islets", "settings": "20 nM GLP-1, 2 mM glucose", "procedure": "Islets were isolated from mouse pancreas by collagenase digestion ([20]). The collagenase was dissolved in Hanks’ balanced salt solution (Invitrogen, Carlsbad, CA) containing 10 µg/ml DNase I (Roche Diagnostics, Indianapolis, IN) and 0.2% BSA, and was subsequently injected into the common bile duct. The pancreas was removed and incubated at 37°C for 20 min and washed three times with Hanks’ balanced salt solution and islets were collected under a microscope. Purified islets were used after an overnight incubation in RPMI 1640 medium containing 5.5 mmol/l glucose and 10% fetal bovine serum in a humidified atmosphere containing 5% CO2/95% air at 37°C. A group of 7 islets was preincubated in Krebs Ringer bicarbonate buffer (KRBH) containing 0.2% BSA and 2 mM glucose for 40 min at 37°C. The indicated concentration of GRK compounds or vehicle (DMSO) were added. The final DMSO concentration was 0.1%. After 30 min incubation at 37°C, 2 mM or 10 mM glucose along with 20 nM GLP-1 were added to wells. After further incubation for 1 hour at 37°C with shaking, culture supernatant was collected, and insulin was detected using the Insulin High Range Assay HTRF Kit according to the manufacturer’s instructions (Cisbio, Bedford, MA)."}, "INS-1 832/13 cells": {"system": "INS-1 832/13 cells", "test": "GLP-1 mediated insulin secretion in INS-1 832/13 cells", "settings": "GLP-1 at 10 nM, 5 mM glucose", "procedure": "INS-1 832/13 cells were cultured in medium composed of RPMI 1640 medium supplemented with 10% fetal bovine serum, 50 IU/mL penicillin, 50 mg/L streptomycin, 10 mM HEPES, 2 mM L-glutamine, 1 mM sodium pyruvate, and 50 µM beta-mercaptoethanol. Cells were split twice a week, grown in a 37°C incubator under a humidified atmosphere containing 5% CO2 and plated at (60,000 cells/well) in a 96-well plate, two days prior to the experiment. Cells were washed twice with glucose-free Krebs-Ringer Bicarbonate buffer (KRB) (116 mM NaCl, 1.8 mM CaCl2, 0.8 mM MgSO4, 5.4 mM KCl, 1 mM NaH2PO4, 26 mM NaHCO3, and 0.2% fatty-acid free BSA, pH 7.4) followed by preincubation for 1 h at 37°C in glucose-free KRB and the indicated concentration of GRK compounds or vehicle (DMSO) were added. The final DMSO concentration was 0.1%. After 30 min incubation at 37°C, 2 mM or 5 mM glucose and 10 nM GLP-1 were added to the wells for a final volume of 200 μL. After further incubation for 1 hour at 37°C, 20 μL of the culture supernatant was diluted 1:15 in the Dilution Buffer provided in the Insulin High Range Assay HTRF Kit (Cisbio, Bedford, MA). Insulin was detected using the Insulin High Range Assay HTRF Kit according to the manufacturer’s instructions (Cisbio, Bedford, MA). All results were obtained in 5 replicates."}}, "note": "No end group written: not given here.", "data": [{"substance": "Human GLP-1 (7-36) amide (HAEGTFTSDVSSYLEGQAAKEFIAWLVKGR-NH2; UniProt P01275 98-127, looked up, fragment)", "values": [{"measurement": "EC80 for increase of cellular β-gal enzyme activity (β-arrestin recruitment)", "setting": "[1]", "result": "approximately 100 nM"}, {"measurement": "insulin secretion at 2 mM glucose, GLP-1 alone", "setting": "mouse pancreatic islets", "result": "did not stimulate insulin secretion"}, {"measurement": "insulin secretion", "setting": "INS-1 832/13 cells", "result": "stimulated insulin secretion"}]}]}
